29 compounds from patent US12624034B2, “Non-covalent modifiers of AKT1 and uses thereof” (Terremoto Biosciences, Inc., priority 2023, dated 2026) can be followed below.

One test concerns the target T1, AKT1 WT (Homo sapiens, UniProt P31749).
T1 construct: expressed in transfected cells; host or cells: HEK293
In words: Live cell AKT1 WT target engagement by NanoBRET competitive probe displacement in HEK293 cells. It is filed as binding. The conditions noted are these: 2 h at 37° C., read-out: AKT1 WT IC50. In general terms: BRET reads energy transfer from a luciferase to a nearby fluorophore.

The next test deals with T2, AKT2 (Homo sapiens, UniProt P31751).
T2 construct: expressed in transfected cells; host or cells: HEK293
In words: Live cell AKT2 target engagement by NanoBRET competitive probe displacement in HEK293 cells. Format: binding. The conditions noted are these: 2 h at 37° C., read-out: AKT2 IC50.

Setting [1] is: NanoBRET live cell target engagement, HEK293 cells.
The mark [2] stands for this setting: NanoBRET competitive probe displacement, live HEK293 cells.

Molecules are shown by their SMILES. pIC50: −log10 of the molar value. Where two headings read alike, the source gives them in different places. Some results are limits rather than exact numbers.

T2 sequence (P31751 whole entry): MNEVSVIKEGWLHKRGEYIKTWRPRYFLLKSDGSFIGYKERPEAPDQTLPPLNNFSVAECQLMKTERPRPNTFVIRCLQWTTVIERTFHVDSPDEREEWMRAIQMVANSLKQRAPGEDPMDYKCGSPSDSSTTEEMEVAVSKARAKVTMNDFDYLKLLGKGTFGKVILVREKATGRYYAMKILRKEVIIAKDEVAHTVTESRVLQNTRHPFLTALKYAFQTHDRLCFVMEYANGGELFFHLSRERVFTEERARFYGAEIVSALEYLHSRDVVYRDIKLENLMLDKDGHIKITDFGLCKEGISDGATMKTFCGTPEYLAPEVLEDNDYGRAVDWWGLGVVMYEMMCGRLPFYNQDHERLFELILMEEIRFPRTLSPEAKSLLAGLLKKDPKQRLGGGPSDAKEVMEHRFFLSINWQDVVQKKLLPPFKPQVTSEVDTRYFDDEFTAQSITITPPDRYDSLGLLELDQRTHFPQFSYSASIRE
T1 sequence (P31749 whole entry): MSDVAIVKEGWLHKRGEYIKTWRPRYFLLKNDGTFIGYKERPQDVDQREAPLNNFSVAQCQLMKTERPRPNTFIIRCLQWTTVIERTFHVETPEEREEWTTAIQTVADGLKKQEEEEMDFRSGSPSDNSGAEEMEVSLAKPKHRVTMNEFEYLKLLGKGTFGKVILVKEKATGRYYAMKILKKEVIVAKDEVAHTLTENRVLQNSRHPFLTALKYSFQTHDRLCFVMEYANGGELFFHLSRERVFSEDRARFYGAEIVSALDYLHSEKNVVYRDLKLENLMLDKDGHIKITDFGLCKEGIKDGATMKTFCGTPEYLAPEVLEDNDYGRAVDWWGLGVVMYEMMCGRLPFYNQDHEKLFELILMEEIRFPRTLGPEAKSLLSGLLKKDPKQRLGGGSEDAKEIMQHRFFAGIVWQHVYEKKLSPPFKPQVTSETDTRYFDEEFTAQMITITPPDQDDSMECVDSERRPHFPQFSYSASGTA

In general, pIC50 refers to the negative decadic logarithm of the IC50, by convention in mol/L. Regarding `Cc1cc2ncn([C@H]3CCc4cc(-n5c(-c6cccnc6N)nc6ccc(-n7cccn7)nc65)ccc43)c(=O)c2cn1` [Compound 91, (S)-3-(5-(2-(2-aminopyridin-3-yl)-5-(1H-pyrazol-1-yl)-3H-imidazo[4,5-b]pyridin-3-yl)-2,3-dihydro-1H-inden-1-yl)-7-methylpyrido[4,3-d]pyrimidin-4(3H)-one], the pIC50 is 6.70 at AKT1 WT (setting [1]) and 6.12 on AKT2 (setting [1]).
The matching figures for `Nc1ncccc1-c1nc2ccc(-n3cccn3)nc2n1-c1ccc2c(c1)CC[C@@H]2NC(=O)c1ccc2cccn2c1` [Compound 328]: 7.75 and 6.74.
`COc1nccc2c1CCC2N[C@H]1CCc2cc(-n3c(-c4cccnc4N)nc4ccc(-n5cccn5)nc43)ccc21` (stereo partly shown) [Compound 509]: the figures for the pIC50 at AKT1 WT (setting [2]) and on AKT2 (setting [2]) were 7.54 and 6.03, respectively.
Consider `Nc1ncccc1-c1nc2ccc(-n3ncc(OC(F)F)n3)nc2n1-c1ccc2c(c1)CC[C@@H]2NC(=O)c1cnc(C(F)F)s1` [Compound 595], for which the results for the pIC50 on AKT1 WT (setting [2]) and on AKT2 (setting [2]) were 7.82 and 6.28, respectively.
The matching figures for `COc1ccn(-c2ccc3nc(-c4cccnc4N)n(-c4ccc5c(c4)CC[C@@H]5NC4CCN(C(=O)C5CC5)CC4F)c3n2)n1` (stereo partly shown) [Compound 512]: 7.71 and 6.39.
With `CN1CC(Oc2cc(C(=O)N[C@H]3CCc4cc(-n5c(-c6cccnc6N)nc6ccc(-n7cccn7)nc65)ccc43)ccn2)C1` [Compound 179], the pIC50 at AKT1 WT (setting [1]) was 7.10; at AKT2 (setting [1]), 5.90.
`Nc1ncccc1-c1nc2ccc(C#C[C@H]3CCO3)nc2n1-c1ccc2c(c1)CC[C@@H]2NC(=O)c1ccc(C(F)F)nc1` [Compound 453]: the pIC50 on AKT1 WT (setting [2]) is 7.55; on AKT2 (setting [2]), 5.42.
Turning to `Nc1ncccc1-c1nc2ccc(-n3cccn3)nc2n1-c1ccc2c(c1)CC[C@@H]2N1CCC1` [Compound 87, (S)-3-(3-(1-(azetidin-1-yl)-2,3-dihydro-1H-inden-5-yl)-5-(1H-pyrazol-1-yl)-3H-imidazo[4,5-b]pyridin-2-yl)pyridin-2-amine], the pIC50 at AKT1 WT (setting [1]) was 6.83; on AKT2 (setting [1]), 5.72.
As to `Nc1ncccc1-c1nc2ccc(-n3cccn3)nc2n1-c1ccc2c(c1)CC[C@@H]2NC1CC2(CCN(c3ccccn3)CC2)C1` [Compound 449], the pIC50 was 7.10 at AKT1 WT (setting [2]) and 5.92 on AKT2 (setting [2]).
As for `Cc1ncc(C(=O)N[C@H]2CCc3cc(-n4c(-c5cccnc5N)nc5ccc(-n6nccn6)nc54)ccc32)c(C)n1` [Compound 92], the pIC50 is 7.37 at AKT1 WT (setting [1]) and 5.94 on AKT2 (setting [1]).
For `Cn1ccc(CN[C@H]2CCc3cc(-n4c(-c5cccnc5N)nc5ccc(-n6cccn6)nc54)ccc32)n1` [Compound 206] the same measures were 6.92 and 5.75.
For `CN(C)[C@H]1CCc2cc(-n3c(-c4cccnc4N)nc4ccc(-n5cccn5)nc43)ccc21` [Compound 340] the same measures were 7.42 and 6.00.
`Nc1ncccc1-c1nc2ccc(-n3cccn3)nc2n1-c1ccc2c(c1)CC[C@@H]2NC1CCN(C(=O)[C@@H]2C[C@@H]2F)CC1` [Compound 477]: the pIC50 on AKT1 WT (setting [2]) is 6.77; on AKT2 (setting [2]) it was 5.36.
For `CN1CC(Oc2ccn(-c3ccc4nc(-c5cccnc5N)n(-c5ccc6c(c5)CC[C@@H]6NC5CCN(C(=O)C6CC6)CC5)c4n3)n2)C1` [Compound 566] the same measures were 7.98 and 6.61.
The matching figures for `Nc1ncccc1-c1nc2ccc(-n3cccn3)nc2n1-c1ccc2c(c1)CC[C@@H]2NC1CC2(CCN(c3ccccn3)C2)C1` (stereo partly drawn) [Compound 447, N-[(1S)-5-[2-(2-aminopyridin-3-yl)-5-(pyrazol-1-yl)imidazo[4,5-b]pyridin-3-yl]-2,3-dihydro-1H-inden-1-yl]-6-(pyridin-2-yl)-6-azaspiro[3.4]octan-2-amine]: 7.11 and 5.83.
Turning to `Cc1ccc(C(=O)N[C@H]2CCc3cc(-n4c(-c5cccnc5N)nc5ccc(-c6ncn(C)n6)nc54)ccc32)cn1` [Compound 455, (S)—N-(5-(2-(2-aminopyridin-3-yl)-5-(1-methyl-1H-1,2,4-triazol-3-yl)-3H-imidazo[4,5-b]pyridin-3-yl)-2,3-dihydro-1H-inden-1-yl)-6-methylnicotinamide], the pIC50 on AKT1 WT (setting [2]) is 6.71; on AKT2 (setting [2]) it was 5.52.
As to `Nc1ncccc1-c1nc2ccc(-n3cccn3)nc2n1-c1ccc2c(c1)CC[C@@H]2NC(=O)c1cc2n(n1)CCC2` [Compound 173], the pIC50 at AKT1 WT (setting [1]) is 7.52; at AKT2 (setting [1]), 6.65.
For `Cc1cc(C(=O)N[C@H]2CCc3cc(-n4c(-c5cccnc5N)nc5ccc(-n6cccn6)nc54)ccc32)nn1C(F)F` [Compound 166] the same measures were 7.52 and 6.16.
`Nc1ncccc1-c1nc2ccc(-n3cccn3)nc2n1-c1ccc2c(c1)CC[C@H]2NC1CCN(C(=O)C2CC2)CC1` [Compound 500]: the results for the negative-log IC50 (pIC50) on AKT1 WT (setting [2]) and on AKT2 (setting [2]) were 7.09 and less than 5.00, respectively.
The matching figures for `CN1CCN(c2ccn(-c3ccc4nc(-c5cccnc5N)n(-c5ccc6c(c5)CC[C@@H]6NC5CCN(c6ccn(C)n6)CC5)c4n3)n2)CC1` [Compound 598]: 8.42 and 7.39.
Turning to `Nc1ncccc1-c1nc2ccc(-n3cccn3)nc2n1-c1ccc2c(c1)CC[C@@H]2n1nnc2ccccc21` [Compound 345], the pIC50 on AKT1 WT (setting [1]) is 7.29; on AKT2 (setting [1]) it was 6.12.
For `Nc1ncccc1-c1nc2ccc(-n3cccn3)nc2n1-c1ccc2c(c1)CC[C@@H]2NC(=O)c1ccc(F)nc1` [Compound 264] the same measures were 8.02 and 6.79.
As to `CS(=O)(=O)Nc1ccn(-c2ccc3nc(-c4cccnc4N)n(-c4ccc5c(c4)CC[C@@H]5NC4CCN(C(=O)C5CC5)CC4)c3n2)n1` [Compound 582], the figures for the pIC50 on AKT1 WT (setting [2]) and at AKT2 (setting [2]) were less than 6.00 and less than 5.00, respectively.
As for `Nc1ncccc1-c1nc2ccc(-n3cccn3)nc2n1-c1ccc2c(c1)CC[C@@H]2NC1CCN(C(=O)C2CC2)CC1F` (stereo partly shown) [Compound 445], the pIC50 at AKT1 WT (setting [2]) was 7.69; at AKT2 (setting [2]), 6.01.
Take `Nc1ncccc1-c1nc2ccc(-n3cccn3)nc2n1-c1ccc2c(c1)CC[C@@H]2NC(=O)c1cnc2c(c1)CCC2` [Compound 94]: the pIC50 is 8.13 on AKT1 WT (setting [1]) and 7.73 on AKT2 (setting [1]).
As for `Nc1ncccc1-c1nc2ccc(-n3nccn3)nc2n1-c1ccc2c(c1)CC[C@@H]2n1cc(C2CC2)nn1` [Compound 352], the pIC50 at AKT1 WT (setting [1]) is 6.85; at AKT2 (setting [1]), 5.37.
Take `Cc1nccnc1C(=O)N[C@H]1CCc2cc(-n3c(-c4cccnc4N)nc4ccc(-c5ccn(C(F)F)n5)nc43)ccc21` [Compound 301]: the pIC50 on AKT1 WT (setting [1]) is 6.72; at AKT2 (setting [1]), 5.69.
For `Cc1ncccc1OCC1CCc2cc(-n3c(-c4cccnc4N)nc4ccc(-n5cccn5)nc43)ccc21` (single isomer, unassigned) [Compound 252, (*)-3-(3-(1-(((2-methylpyridin-3-yl)oxy)methyl)-2,3-dihydro-1H-inden-5-yl)-5-(1H-pyrazol-1-yl)-3H-imidazo[4,5-b]pyridin-2-yl)pyridin-2-amine] the same measures were 6.22 and 5.58.
For `Cc1ccc(C(=O)N[C@H]2CCc3cc(-n4c(-c5cccnc5N)nc5ccc(-c6ncco6)nc54)ccc32)cn1` [Compound 223] the same measures were 7.41 and 6.23.
